Results on 27 molecules are retold here after patent US9284333B2, “Fused pyrroledicarboxamides and their use as pharmaceuticals” (SANOFI, priority 2012, dated 2016).

In general, inhibition refers to how much of the control response was suppressed. High values mean a response far below the control, low ones a response near the control. A word on the IC50: it is the midpoint of a concentration-inhibition curve.

Human TASK-1 channels, sequence (O14649 whole entry): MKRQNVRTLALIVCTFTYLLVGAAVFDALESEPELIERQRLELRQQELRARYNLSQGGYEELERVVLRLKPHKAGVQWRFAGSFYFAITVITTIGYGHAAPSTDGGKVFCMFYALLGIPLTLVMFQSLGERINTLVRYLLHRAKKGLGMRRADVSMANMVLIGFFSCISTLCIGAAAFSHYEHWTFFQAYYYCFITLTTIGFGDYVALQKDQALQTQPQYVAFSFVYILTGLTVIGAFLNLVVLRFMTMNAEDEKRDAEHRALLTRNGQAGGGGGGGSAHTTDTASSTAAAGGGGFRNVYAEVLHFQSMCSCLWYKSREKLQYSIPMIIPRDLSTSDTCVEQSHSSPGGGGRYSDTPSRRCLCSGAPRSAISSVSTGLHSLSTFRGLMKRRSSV

The target of one experiment is Human TASK-1 channels (Homo sapiens (Human), UniProt O14649). In words: Determination of the activity on the TASK-1 channel in Xenopus oocytes (two-microelectrode voltage clamp). It is filed as cell-based. The note with it: compound concentration 5 μM. Put shortly:
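Current during 500 ms pulses to 40 mV from a −90 mV hold was recorded in oocytes expressing human TASK-1 for two days after cRNA injection. Compounds were added cumulatively to the ND96 bath (pH 7.4, room temperature). IC50 came from dose-response fitting of inhibition relative to pre-compound current.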
`CC[C@@H](NC(=O)c1cc(C(=O)NC(C)c2nnnn2CC)n2c1COCC2)c1ccccc1` (stereo partly drawn) [16rr, 3,4-Dihydro-1H-pyrrolo[2,1-c][1,4]oxazine-6,8-dicarboxylic acid 6-{[1-(1-ethyl-1H-tetrazol-5-yl)-ethyl]-amide} 8-[((R)-1-phenyl-propyl)-amide]] registered an inhibition at 5 µM of 71%.
As for `CC[C@@H](NC(=O)c1cc(C(=O)NCc2cccnn2)n2c1COCC2)c1ccccc1` [16jf, 3,4-Dihydro-1H-pyrrolo[2,1-c][1,4]oxazine-6,8-dicarboxylic acid 8-[((R)-1-phenyl-propyl)-amide] 6-[(pyridazin-3-ylmethyl)-amide]], the inhibition at 5 µM was 36%.
Same read-out and setting: in the case of `CC[C@@H](NC(=O)c1cc(C(=O)N2CCC[C@H]2c2ccccc2)n2c1CCCC2)c1ccccc1` [16mn, 3-((S)-2-Phenyl-pyrrolidine-1-carbonyl)-5,6,7,8-tetrahydro-indolizine-1-carboxylic acid ((R)-1-phenyl-propyl)-amide] it was 92%; in that of `CC[C@@H](NC(=O)c1cc(C(=O)N2CCC[C@@H]2c2ccc(C(F)(F)F)nc2)n2c1COCC2)c1ccccc1` [16ga, 6-[(R)-2-(6-Trifluoromethyl-pyridin-3-yl)-pyrrolidine-1-carbonyl]-3,4-dihydro-1H-pyrrolo[2,1-c][1,4]oxazine-8-carboxylic acid ((R)-1-phenyl-propyl)-amide], 67%.
As for `CC(c1ncccn1)N(CC1CC1)C(=O)c1cc(C(=O)N[C@H](C)c2ccc(F)cc2)n2c1COCC2` (stereo partly drawn) [16ea, 3,4-Dihydro-1H-pyrrolo[2,1-c][1,4]oxazine-6,8-dicarboxylic acid 8-[cyclopropylmethyl-(1-pyrimidin-2-yl-ethyl)-amide] 6-{[(R)-1-(4-fluoro-phenyl)-ethyl]-amide}], 5 µM produced 72% inhibition.
In turn, `C[C@@H](NC(=O)c1cc(C(=O)N2CCC[C@@H]2C)n2c1COCC2)c1ccc(Cl)cc1` [16as, 6-((S)-2-Methyl-pyrrolidine-1-carbonyl)-3,4-dihydro-1H-pyrrolo[2,1-c][1,4]oxazine-8-carboxylic acid [(R)-1-(4-chloro-phenyl)-ethyl]-amide] had an inhibition at 5 µM of 87%.

The experiment is the same for the next values; noted with them: human TASK-1 expressed in Xenopus oocytes, room temperature; read-out: IC50 value for TASK-1 inhibition.
Consider `CC[C@@H](NC(=O)c1cc(C(=O)N2CCC[C@@H]2C(C)O)n2c1COCC2)c1ccccc1` (stereo partly drawn) [16ey, 6-[(R)-2-(1-Hydroxy-ethyl)-pyrrolidine-1-carbonyl]-3,4-dihydro-1H-pyrrolo[2,1-c][1,4]oxazine-8-carboxylic acid ((R)-1-phenyl-propyl)-amide], for which the IC50 is 4.7 µM.
In the case of `CC[C@@H](NC(=O)c1cc(C(=O)NCc2ncccn2)c2n1CCOC2)c1ccccc1` [16jm, 3,4-Dihydro-1H-pyrrolo[2,1-c][1,4]oxazine-6,8-dicarboxylic acid 6-[((R)-1-phenyl-propyl)-amide] 8-[(pyrimidin-2-ylmethyl)-amide]], the half-inhibitory concentration (IC50) is 1.5 µM.
Consider `CC(C)[C@@H](NC(=O)c1cc(C(=O)N2CCCC2)c2n1CCOC2)c1ccc(F)cc1` [16lm, 8-(Pyrrolidine-1-carbonyl)-3,4-dihydro-1H-pyrrolo[2,1-c][1,4]oxazine-6-carboxylic acid [(R)-1-(4-fluoro-phenyl)-2-methyl-propyl]-amide], for which the IC50 was 0.27 µM.
As to `CC[C@H](NC(=O)c1cc(C(=O)N2CCC[C@@H]2C)n2c1COCC2)c1cnc(C(F)(F)F)cc1C(F)(F)F` [16bx, 6-((S)-2-Methyl-pyrrolidine-1-carbonyl)-3,4-dihydro-1H-pyrrolo[2,1-c][1,4]oxazine-8-carboxylic acid [(S)-1-(4,6-bis-trifluoromethyl-pyridin-3-yl)-propyl]-amide], the IC50 is 0.48 µM.
As to `CC[C@@H](NC(=O)c1cc(C(=O)N(C)Cc2ccccn2)n2c1COCC2)c1ccccc1` [16gw, 3,4-Dihydro-1H-pyrrolo[2,1-c][1,4]oxazine-6,8--dicarboxylic acid 6-(methyl-pyridin-2-ylmethyl-amide) 8-[((R)-1-phenyl-propyl)-amide]], the IC50 was determined as 0.78 µM.
In the case of `CC[C@@H](NC(=O)c1cc(C(=O)N2CCC[C@@H]2C)n2c1COCC2)c1cccs1` [16rc, 6-((S)-2-Methyl-pyrrolidine-1-carbonyl)-3,4-dihydro-1H-pyrrolo[2,1-c][1,4]oxazine-8-carboxylic acid ((R)-1-thiophen-2-yl-propyl)amide], the IC50 worked out at 0.15 µM.
Turning to `CC[C@@H](NC(=O)c1cc(C(=O)N(CC)Cc2nnn(C)n2)n2c1COCC2)c1ccccc1` [16rp, 3,4-Dihydro-1H-pyrrolo[2,1-c][1,4]oxazine-6,8-dicarboxylic acid 6-[ethyl-(2-methyl-2H-tetrazol-5-ylmethyl)-amide] 8-[((R)-1-phenyl-propyl)-amide]], the IC50 was 0.45 µM.
Take `CC[C@@H](NC(=O)c1cc(C(=O)N[C@H](C)c2ccc(F)cc2)n2c1COCC2)c1ccc(C(F)(F)F)cn1` [16eg, 3,4-Dihydro-1H-pyrrolo[2,1-c][1,4]oxazine-6,8-dicarboxylic acid 6-{[(R)-1-(4-fluoro-phenyl)-ethyl]-amide} 8-{[(R)-1-(5-trifluoromethyl-pyridin-2-yl)-propyl]-amide}]: the IC50 was found to be 0.054 µM.
With `CCOC(=O)CNC(=O)c1cc(C(=O)N[C@H](CC)c2ccccc2)c2n1CCOC2` [16k, {[8-((R)-1-Phenyl-propylcarbamoyl)-3,4-dihydro-1H-pyrrolo[2,1-c][1,4]oxazine-6-carbonyl]-amino}-acetic acid ethyl ester], the IC50 was 0.18 µM.
`CC[C@@H](NC(=O)c1cc(C(=O)NC(C)c2cccc(S(N)(=O)=O)c2)n2c1COCC2)c1ccccc1` (stereo partly drawn) [16ip, 3,4-dihydro-1H-pyrrolo[2,1-c][1,4]oxazine-6,8-dicarboxylic acid 8-[((R)-1-phenyl-propyl)-amide] 6-{[1-(3-sulfamoyl-phenyl)ethyl]-amide}]: the IC50 turned out to be 1.8 µM.
In the case of `CC[C@@H](NC(=O)c1cc(C(=O)N2CCC[C@@H]2C)n2c1COCC2)c1cc(F)ccc1Cl` [16w, 6-((S)-2-Methyl-pyrrolidine-1-carbonyl)-3,4-dihydro-1H-pyrrolo[2,1-c][1,4]oxazine-8-carboxylic acid [(R)-1-(2-chloro-5-fluoro-phenyl)-propyl]-amide], the IC50 stood at 0.04 µM.
Turning to `CC[C@@H](NC(=O)c1cc(C(=O)N(C)Cc2ccc(F)cc2)n2c1CCCC2)c1ccccc1` [16mu, 5,6,7,8-Tetrahydro-indolizine-1,3-dicarboxylic acid 3-[(4-fluoro-benzyl)-methyl-amide] 1-[((R)-1-phenyl-propyl)-amide]], the IC50 is 0.075 µM.
On to `CC[C@@H](NC(=O)c1cc(C(=O)N2CCN(CCC(F)(F)F)C[C@@H]2C)n2c1COCC2)c1ccccc1` [16ft, 6-[(S)-2-Methyl-4-(3,3,3-trifluoro-propyl)-piperazine-1-carbonyl]-3,4-dihydro-1H-pyrrolo[2,1-c][1,4]oxazine-8-carboxylic acid ((R)-1-phenyl-propyl)-amide], for which the IC50 was determined as 3.6 µM.
With `CC[C@@H](NC(=O)c1cc(C(=O)N2CCC[C@@H]2C)n2c1COCC2)c1cnc(C(F)(F)F)cc1C(F)(F)F` [16by, 6-((S)-2-Methyl-pyrrolidine-1-carbonyl)-3,4-dihydro-1H-pyrrolo[2,1-c][1,4]oxazine-8-carboxylic acid [(R)-1-(4,6-bis-trifluoromethyl-pyridin-3-yl)-propyl]-amide], the IC50 came to 0.8 µM.
For the molecule “6-((S)-2-Methyl-pyrrolidine-1-carbonyl)-3(4-dihydro-1H-pyrrolo[2,1-c][1,4]oxazine-8-carboxylic acid [(R)-1-(2,2-difluoro-benzo[1,3]dioxol-5-yl)-propyl]-amide [16bz]”, the IC50 was 0.2 µM.
As for `CC[C@@H](NC(=O)c1cc(C(=O)N2CCC[C@H]2C)n2c1COCC2)c1ccc(C(F)(F)F)nc1` [16ny, 6-((R)-2-Methyl-pyrrolidine-1-carbonyl)-3,4-dihydro-1H-pyrrolo[2,1-c][1,4]oxazine-8-carboxylic acid [(R)-1-(6-trifluoromethyl-pyridin-3-yl)-propyl]-amide], the IC50 turned out to be 2.8 µM.
As to `CC[C@@H](NC(=O)c1cc(C(=O)N[C@H](CC)c2cccnc2C(F)(F)F)n2c1COCC2)c1ccccc1` [16hm, 3,4-Dihydro-1H-pyrrolo[2,1-c][1,4]oxazine-6,8-dicarboxylic acid 8-[((R)-1-phenyl-propyl)-amide] 6-{[(R)-1-(2-trifluoromethyl-pyridin-3-yl)-propyl]-amide}], the IC50 was found to be 0.66 µM.
On the same count and under the same terms, the same measure for `CC[C@@H](NC(=O)c1cc(C(=O)N2CCC[C@@H]2COC)n2c1COCC2)c1ccccc1` [16eo, 6-((R)-2-Methoxymethyl-pyrrolidine-1-carbonyl)-3,4-dihydro-1H-pyrrolo[2,1-c][1,4]oxazine-8-carboxylic acid ((R)-1-phenyl-propyl)-amide]: 0.38 µM.
As for `CCC[C@@H](NC(=O)c1cc(C(=O)N2CCC[C@@H]2C)n2c1COCC2)c1ccc(C(F)(F)F)nc1` [16bi, 6-((S)-2-Methyl-pyrrolidine-1-carbonyl)-3,4-dihydro-1H-pyrrolo[2,1-c][1,4]oxazine-8-carboxylic acid [(R)-1-(6-trifluoromethyl-pyridin-3-yl)-butyl]-amide], the IC50 stood at 0.15 µM.
For `CC(C)[C@@H](NC(=O)c1cc(C(=O)N2CCC[C@@H]2C)n2c1COCC2)c1ccc(C(F)(F)F)nc1` [16aq, 6-((S)-2-Methyl-pyrrolidine-1-carbonyl)-3,4-dihydro-1H-pyrrolo[2,1-c][1,4]oxazine-8-carboxylic acid [(R)-2-methyl-1-(6-trifluoromethyl-pyridin-3-yl)-propyl]-amide], the IC50 was 0.46 µM.
On the same count and under the same terms, the same measure for `CC[C@@H](NC(=O)c1cc(C(=O)N[C@H](CC)c2ccc(C#N)nc2)n2c1COCC2)c1ccccc1` [16ib, 3,4-Dihydro-1H-pyrrolo[2,1-c][1,4]oxazine-6,8-dicarboxylic acid 6-{[(R)-1-(6-cyano-pyridin-3-yl)-propyl]-amide} 8-[((R)-1-phenyl-propyl)-amide]]: 1 µM.
